Reference: PMC8206213, “An L-2-hydroxyglutarate biosensor based on specific transcriptional regulator LhgR” (Nature Communications, 2021)
pKd: −log10 of the molar value. Where “and” joins values, the source holds several entries; their conditions need not be identical. Equal values may be shown once.

Experiments:
LHGFR0N7C [1] = assay: Specificity of purified LHGFR0N7C, emission ratio with 240 μM compounds; type: binding, Pseudomonas putida W619; conditions: 240 μM compound
Protocol: (§1) Purified L-2-HG biosensors and different compounds were diluted by 50 mM Tris-HCl buffer (pH 7.4), mixed together in a black 96-well plate at a volume ratio of 3:1, and the fluorescence intensities were measured using an EnSight microplate reader (PerkinElmer, USA) with excitation at 430 nm, emission at 485 nm (mTFP) and 528 nm (Venus). […] The [L-2-HG], Kd, and p refer to the L-2-HG concentration, apparent dissociation constant, and Hill slope, respectively. Emission spectra were recorded at 430 nm excitation, in steps of 2 nm. Excitation spectra were recorded using emission at 550 nm, excitation from 380 to 535 nm in steps of 2 nm.

LHGFR0N3C [2] = assay: Specificity of purified LHGFR0N3C, emission ratio with 240 μM compounds; type: binding, Pseudomonas putida W619; conditions: 240 μM compound
Protocol: as §1

LHGFR0N7C [3] = assay: Influence of other compounds on the response of purified LHGFR0N7C to L-2-HG; type: binding, Pseudomonas putida W619; conditions: Suppl. Fig. 9b; L-2-HG alone or with the compound; three replicates
Protocol: as §1

LhgR = assay: EMSA, effect of compounds on LhgR binding to the lhgO promoter region F1; set-up: species or system Pseudomonas putida W619; conditions: 50 mM compound, 10 nM F1, 60 nM LhgR
Protocol: Electrophoretic mobility shift assays (EMSAs) were carried out using the DNA fragment (F1 or F2) and purified LhgR. The DNA fragments were first amplified by primer pairs F1-F/F1-R and F2-F/F2-R, respectively. Then, either fragment at a concentration of 10 nM DNA was incubated with LhgR (0–160 nM) in 20 μL EMSA binding buffer (10 mM Tris-HCl [pH 7.4], 50 mM KCl, 0.5 mM EDTA, 10% [vol/vol] glycerol, and 1 mM dithiothreitol [DTT]). The binding reactions were carried out at 30 °C for 30 min. Electrophoresis was performed on 6% native polyacrylamide gels at 4 °C and 170 V (constant voltage) for about 45 min, followed by staining with SYBR green I (TaKaRa, China) and photographing. Analysis of the interaction between lhgO promoter region (F1) and LHGFR was performed using the same procedure.
To characterize the effector of LhgR, purified LhgR was first incubated with L-lysine, 5-aminovalerate, glutarate, L-2-HG, D-2-HG, 2-KG, or succinate at 30 °C for 15 min, followed by incubation with the added DNA fragments at 30 °C for 30 min. The mixtures were subsequently subjected to electrophoresis.

LHGFR0N3C [4] = assay: Influence of other compounds on the response of purified LHGFR0N3C to L-2-HG; type: binding, Pseudomonas putida W619; conditions: Suppl. Fig. 9a; L-2-HG alone or with the compound; three replicates
Protocol: as §1

LHGFR0N7C [5] = target: T1, LHGFR0N7C; assay: FRET titration of purified sensor with D-2-HG (10 nM to 2 mM) in 50 mM Tris-HCl pH 7.4, Venus/mTFP emission ratio (excitation 430 nm).; type: binding; conditions: SD, n = 3; read-out: apparent Kd in response to D-2-HG
T1 construct: FRET sensor: LhgR truncated by seven C-terminal amino acids between mTFP (N-terminus) and Venus (C-terminus)
Protocol: Purified L-2-HG biosensors and different compounds were diluted by 50 mM Tris-HCl buffer (pH 7.4), mixed together in a black 96-well plate at a volume ratio of 3:1, and the fluorescence intensities were measured using an EnSight microplate reader (PerkinElmer, USA) with excitation at 430 nm, emission at 485 nm (mTFP) and 528 nm (Venus). The dose-response curves were fitted by OriginPro 2016 software (OriginLab) according to the following formula:1 R=Rmax+Rmin−Rmax/1+([L-2-HG]/Kd)^p where R, Rmin, and Rmax refer to the emission ratio of Venus to mTFP, ratio in the absence of L-2-HG, and ratio at saturation with L-2-HG, respectively. The [L-2-HG], Kd, and p refer to the L-2-HG concentration, apparent dissociation constant, and Hill slope, respectively. Emission spectra were recorded at 430 nm excitation, in steps of 2 nm. Excitation spectra were recorded using emission at 550 nm, excitation from 380 to 535 nm in steps of 2 nm. […]
column in the presence of only L-2-HG was used as the control. (c, d) Comparison of the […]
LHGFR0N7C (d). […]
response to D-2-HG (1.85 ± 0.91 mM; black line) than L-2-HG (7.22 ± 0.38 μM; red line). (e-j) Dose-response curves of LHGFR0N3C (e, g, and i) and LHGFR0N7C (f, h, and j) for increasing concentrations (10 nM to 2 mM) of L-2-HG were measured in the presence of 240 μM D-2-HG (e, f), 1 mM 2-KG (g, h), or 1 mM ATP (i, j). […]

HEK293FT cells = assay: Hypoxia-induced L-2-HG production in LHGFR-expressing HEK293FT cells with or without 5 mM DMαKG; type: cell-based, human; conditions: for L-2-HG concentration: in µM
Protocol: HEK293FT cells were cultured in high-glucose Dulbecco’s modified eagle medium (DMEM) supplemented with 10% (vol/vol) fetal bovine serum (FBS), 100 units mL^−1 penicillin, and 100 μg mL^−1 streptomycin (all purchased from ThermoFisher, USA), and kept at 37 °C in humidified air containing 5% CO2. For hypoxia experiments, cells were kept in a compact O2 and CO2 subchamber controller (ProOx C21, BioSpherix, USA) at 2% O2, 5% CO2, and balanced with N2 for 24 h. For the construction of LHGFR expressing cell, HEK293FT cells were plated in 24-well plates so that they reached 70-90% confluency 24 h after plating, the medium was refreshed 2 h before transfection.
The preparation of cell suspensions and the measurement of emission ratios were performed using the same procedure. The background fluorescence was subtracted at each emission wavelength.

[6] = target: LhgR (Pseudomonas putida W619); assay: SEC; gel filtration on Superdex 200 10/300 GL against protein mass standards, compared with SDS-PAGE; 50 mM sodium phosphate, 150 mM sodium chloride, pH 7.2

Row | Molecule | Emission ratio (LHGFR0N7C [1]) | Induction of emission ratio changes (LHGFR0N7C [1]) | Emission ratio (LHGFR0N3C [2]) | Induction of emission ratio changes (LHGFR0N3C [2]) | Emission ratio (LHGFR0N7C [3]) | Effect on LhgR binding to the lhgO promoter region F1 (LhgR) | Emission ratio (LHGFR0N3C [4]) | other results
1 | O=C(O)CCC(=O)C(=O)O [2-KG, 2-ketoglutarate] | 1.701 and 1.693 and 1.728 | None | 1.349 and 1.385 and 1.381 | None | 2.436 and 2.603 and 2.441 | observed only in the presence of L-2-HG | 2.007 and 2.049 and 2.099 | 
2 | NCCCCC(=O)O [5-Aminovalerate, 5-aminovalerate] | 1.703 and 1.69 and 1.7015 | None | 1.403 and 1.397 and 1.408 | None | 2.625 and 2.696 and 2.709 | observed only in the presence of L-2-HG | 2.084 and 2.019 and 2.1 | 
3 | O=C(O)CC[C@@H](O)C(=O)O [D-2-HG, D-2-hydroxyglutarate] |  |  |  |  |  |  |  | pKd (LHGFR0N7C [5]): 2.73
4 | COC(=O)CCC(=O)C(=O)OC [DMaKG] |  |  |  |  |  |  |  | Normalized emission ratio (HEK293FT cells; 2% O2, With DMaKG, Supplementary Fig. 18e): 1.018 and 0.9342 and 1.029 and 0.9552; Normalized emission ratio (HEK293FT cells; 21% O2, With DMaKG, Supplementary Fig. 18e): 1.029 and 0.993 and 1.008 and 0.9754; Normalized emission ratio (HEK293FT cells; Fig. 6f, 2% O2, With DMaKG): 1.196 and 1.188 and 1.187 and 1.206; L-2-HG concentration (HEK293FT cells; Fig. 6f, 2% O2, With DMaKG): 547.911 and 427.301 and 412.83 and 794.44; Normalized emission ratio (HEK293FT cells; Fig. 6f, 21% O2, With DMaKG): 1.081 and 1.084 and 1.102 and 1.071; L-2-HG concentration (HEK293FT cells; Fig. 6f, 21% O2, With DMaKG): 66.2807 and 68.36 and 87.5008 and 58.4114
5 | NCCCC[C@H](N)C(=O)O [L-Lysine, L-lysine] | 1.692 and 1.701 and 1.71 | None | 1.377 and 1.382 and 1.394 | None | 2.577 and 2.607 and 2.654 | observed only in the presence of L-2-HG | 2.026 and 2.06 and 2.101 | 
6 | O=C(O)CCC(=O)O [Succinate, succinate] | 1.718 and 1.724 and 1.726 | None | 1.357 and 1.389 and 1.4025 | None | 2.581 and 2.619 and 2.616 | observed only in the presence of L-2-HG | 2.013 and 2.0132 and 2.099 | 
7 | COC(=O)CCC(=O)C(=O)OC [dimethyl-2-ketoglutarate] |  |  |  |  |  |  |  | Effect on emission ratio of LHGFR0N3C (HEK293FT cells; 5 mM, hypoxic conditions, 24 h): significantly increased the emission ratio of LHGFR0N3C under hypoxic conditions
8 | LhgR (natural protein) |  |  |  |  |  |  |  | stoichiometry N [6]: 2
